Patent US20120129870A1, “PIPERAZINYL DERIVATIVES USEFUL AS MODULATORS OF THE NEUROPEPTIDE Y2 RECEPTOR” (priority 2007, published 2012)

Target: T1, NPY Y2 receptor (Homo sapiens, UniProt P49146)
T1 sequence (P49146 1-381): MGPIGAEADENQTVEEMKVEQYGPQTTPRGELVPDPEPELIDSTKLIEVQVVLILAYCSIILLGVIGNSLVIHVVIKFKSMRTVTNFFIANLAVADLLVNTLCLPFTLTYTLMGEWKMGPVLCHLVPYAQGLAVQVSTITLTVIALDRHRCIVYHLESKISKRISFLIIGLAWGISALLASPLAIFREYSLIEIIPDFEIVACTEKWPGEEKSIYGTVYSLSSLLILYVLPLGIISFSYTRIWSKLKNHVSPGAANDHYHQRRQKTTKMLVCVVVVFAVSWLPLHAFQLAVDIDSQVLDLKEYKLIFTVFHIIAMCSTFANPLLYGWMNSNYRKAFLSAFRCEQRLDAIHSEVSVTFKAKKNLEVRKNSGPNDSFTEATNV
Assay: Neuropeptide Y2 radioligand binding assay ([125I]PYY, KAN-Ts membranes)
Set-up: endogenous in cells; host or cells: KAN-Ts cells (membrane preparation)
Details: for IC50: KAN-Ts membranes endogenously expressing Y2, [125I]PYY (80 pM), 1 h at rt; for Ki: apparent Ki=IC50/(1+C/KD)
Procedure: KAN-Ts endogenously expressing Y2 receptors were used for the radioligand binding assay. Cells were grown to confluence on 150 cm^2 tissue culture plates, washed with phosphate-buffered saline (PBS), and scraped into 50 mL tubes. After centrifugation, the supernatant was aspirated, and the pellets frozen and stored at −80° C. Thawed pellets were homogenized with a polytron tissue grinder for 15 sec in 20 mM Tris-HCl, 5 mM EDTA. The homogenate was centrifuged at 800×g for 5 min and the collected supernatant was recentrifuged at 25000×g for 25 min. The resulting pellet was resuspended in binding buffer (20 mM HEPES, 120 mM NaCl, 0.22 mM KH2PO4, 1.3 mM CaCl2, 0.8 mM MgSO4). Membranes were incubated with [^125I]PYY (80 pM) in the presence or absence of test compound for 1 h at rt. The reaction was stopped by filtration through GF/C filter plates pre-soaked in 0.3% polyethylenimine and subsequently washed with Tris 50 mM, 5 mM EDTA buffer. Plates were dried for 1 h in a 55° C. oven, scintillation fluid was added and the radioactivity was counted in a Packard TopCount. Specific binding to the NPY receptor subtypes was determined by radioactivity that was bound in the presence of […]. Each binding experiment was repeated three to eight times, each in duplicate. IC50 values (i.e. concentration of unlabelled peptide or antagonist required to compete for 50% of specific binding to the radioligand) were calculated using the GraphPad Prism software (GraphPad Software Inc., San Diego Calif.) with a fit to a sigmoidal dose response curve. Apparent K, values were calculated as Ki=IC50/(1+C/KD), where C is concentration of the radioligand.

SMILES	IC50	Ki
N#Cc1cc(NC(=O)C2CCC2)ccc1N1CCN(C(c2ccccc2)c2ncco2)CC1 (stereo not drawn) [Compound 95, Cyclobutanecarboxylic acid {3-cyano-4-[4-(oxazol-2-yl-phenyl-methyl)-piperazin-1-yl]-phenyl}-amide]	100 nM	
CCC(CC)NC(=O)c1ccc(N2CCN(C(c3ccccc3)c3ncco3)CC2)c(F)c1 (stereo not drawn) [Compound 46, N-(1-Ethyl-propyl)-3-fluoro-4-[4-(oxazol-2-yl-phenyl-methyl)-piperazin-1-yl]-benzamide]	1200 nM	
Cc1noc(C)c1C(=O)Nc1ccc(N2CCN(C(c3ccc(F)cc3)c3ccc(F)cc3)CC2)c(C#N)c1 [Compound 309, 3,5-Dimethyl-isoxazole-4-carboxylic acid (4-{4-[bis-(4-fluoro-phenyl)methyl]-piperazin-1-yl}-3-cyano-phenyl)-amide]		740 nM
O=C(Nc1ccc(N2CCN(C(c3ccccc3)c3ccccc3)CC2)c(F)c1)[C@H]1CCOC1 (stereo in doubt) [Compound 14, Tetrahydro-furan-3-carboxylic acid [4-(4-benzhydryl-piperazin-1-yl)-3-fluoro-phenyl]-amide]	80 nM	
N#Cc1cc(NC(=O)C2CC2)ccc1N1CCN(C(c2ccccc2)c2ncco2)CC1 (stereo not drawn) [Compound 101, Cyclopropanecarboxylic acid {3-cyano-4-[4-(oxazol-2-yl-phenyl-methyl)-piperazin-1-yl]-phenyl}-amide]	170 nM	
CCC(CC)C(=O)Nc1ccc(N2CCN(C(c3ccccn3)c3ccccn3)CC2)c(F)c1 [Compound 55, N-{4-[4-(Di-pyridin-2-yl-methyl)-piperazin-1-yl]-3-fluoro-phenyl}-2-ethyl-butyramide]	54 nM	
Cc1ccnc(Nc2ccc(N3CCN(C(c4ccccc4)c4ncco4)CC3)c(F)c2)n1 (stereo not drawn) [Compound 61, {3-Fluoro-4-[4-(oxazol-2-yl-phenyl-methyl)-piperazin-1-yl]-phenyl}-(4-methyl-pyrimidin-2-yl)-amine]	> 10000 nM	
CC(C)C(=O)Nc1ccc(N2CCN(C(c3ccccc3)c3ncco3)CC2)c(F)c1 (stereo not drawn) [Compound 72, N-{3-Fluoro-4-[4-(oxazol-2-yl-phenyl-methyl)-piperazin-1-yl]-phenyl}-isobutyramide]	320 nM	
CCC(CC)C(=O)Nc1ccc(N2CCN(C(C#N)c3ccccn3)CC2)c(F)c1 (stereo not drawn) [Compound 138, N-{4-[4-(Cyano-pyridin-2-yl-methyl)-piperazin-1-yl]-3-fluoro-phenyl}-2-ethyl-butyramide]	> 10000 nM	
N#Cc1cc(NC(=O)C2CC2)ccc1N1CCN(C(c2ccccc2)c2ccncc2)CC1 (stereo not drawn) [Compound 322, Cyclopropanecarboxylic acid {3-cyano-4-[4-(phenyl-pyridin-4-yl-methyl)-piperazin-1-yl]-phenyl}-amide]		34 nM
CCCC(=O)Nc1ccc(N2CCN(C(c3ccccc3)c3ncco3)CC2)c(C#N)c1 (stereo not drawn) [Compound 98, N-{3-Cyano-4-[4-(oxazol-2-yl-phenyl-methyl)-piperazin-1-yl]-phenyl}-butyramide]	180 nM	
O=C(Nc1ccc(N2CCN(C(c3ccccc3)c3ncco3)CC2)c(F)c1)C1CCC(F)(F)CC1 (stereo not drawn) [Compound 108, 4,4-Difluoro-cyclohexanecarboxylic acid {3-fluoro-4-[4-(oxazol-2-yl-phenyl-methyl)-piperazin-1-yl]-phenyl}-amide]	> 10000 nM	
CCC(CC)C(=O)Nc1ccc(N2CCN(C(C#N)c3ccccc3C#N)CC2)c(F)c1 (stereo not drawn) [Compound 136, N-(4-{4-[Cyano-(2-cyano-phenyl)-methyl]-piperazin-1-yl}-3-fluoro-phenyl)-2-ethyl-butyramide]	9800 nM	
O=C(Nc1ccc(N2CCN(C(c3ccccc3)c3ncco3)CC2)c(F)c1)C1CCC1 (stereo not drawn) [Compound 73, Cyclobutanecarboxylic acid {3-fluoro-4-[4-(oxazol-2-yl-phenyl-methyl)-piperazin-1-yl]-phenyl}-amide]	180 nM	
CCC(CC)C(=O)Nc1ccc(N2CCN(C(c3ccccc3)c3nc(-c4ccccc4)no3)CC2)c(F)c1 (stereo not drawn) [Compound 242, 2-Ethyl-N-(3-fluoro-4-{4-[phenyl-(3-phenyl-[1,2,4]-oxadiazol-5-yl)-methyl]-piperazin-1-yl}-phenyl)-butyramide]	71 nM	
CCC(CC)C(=O)Nc1ccc(N2CCN(C(c3ccc(F)cc3)c3ccc(F)cc3)CC2)c(C#N)c1 [Compound 307, N-(4-{4-[Bis(4-fluorophenyl)methyl]piperazin-1-yl}-3-cyanophenyl)-2-ethylbutanamide]		150 nM
Cc1ccccc1Nc1ccc(N2CCN(C(c3ccccc3)c3ncco3)CC2)c(F)c1 (stereo not drawn) [Compound 63, {3-Fluoro-4-[4-(oxazol-2-yl-phenyl-methyl)-piperazin-1-yl]-phenyl}-o-tolyl-amine]	710 nM	
CCC(CC)C(=O)Nc1ccc(N2CCN(C(c3ccccc3)c3noc(C(F)(F)F)n3)CC2)c(F)c1 (stereo not drawn) [Compound 234, 2-Ethyl-N-(3-fluoro-4-{4-[phenyl-(5-trifluoromethyl-[1,2,4]-oxadiazol-3-yl)-methyl]-piperazin-1-yl}-phenyl)-butyramide]	120 nM	
O=C(Nc1ccc(N2CCN(C(c3ccccc3)c3ncco3)CC2)c(F)c1)[C@@H]1CCOC1 (stereo in doubt) [Compound 92, Tetrahydro-furan-3-carboxylic acid {3-fluoro-4-[4-(oxazol-2-yl-phenyl-methyl)-piperazin-1-yl]-phenyl}-amide]	270 nM	

Second part, the compound after the results:

IC50	Ki	SMILES
310 nM		CCC(CC)C(=O)Nc1ccc(N2CCN(C(c3ncco3)C3CCCC3)CC2)c(F)c1 (stereo not drawn) [Compound 117, N-{4-[4-(Cyclopentyl-oxazol-2-yl-methyl)-piperazin-1-yl]-3-fluoro-phenyl}-2-ethyl-butyramide]
720 nM		CCC(CC)C(=O)Nc1ccc(N2CCN(C(c3ccc(Cl)cc3)C3CC3)CC2)c(F)c1 (stereo not drawn) [Compound 102, N-(4-{4-[(4-Chloro-phenyl)-cyclopropyl-methyl]-piperazin-1-yl}-3-fluoro-phenyl)-2-ethyl-butyramide]
410 nM		CCC(CC)C(=O)Nc1ccc(N2CCN(C(c3ncco3)C3CCC3)CC2)c(F)c1 (stereo not drawn) [Compound 116, N-{4-[4-(Cyclobutyl-oxazol-2-yl-methyl)-piperazin-1-yl]-3-fluoro-phenyl}-2-ethyl-butyramide]
1500 nM		CCC(CC)C(=O)Nc1ccc(N2CCN(C(c3ncco3)C3CC3)CC2)c(F)c1 (stereo not drawn) [Compound 66, N-{4-[4-(Cyclopropyl-oxazol-2-yl-methyl)-piperazin-1-yl]-3-fluoro-phenyl}-2-ethyl-butyramide]
450 nM		CCC(CC)C(=O)Nc1ccc(N2CCN(C(c3ccccc3)C3C(C)C3(Cl)Cl)CC2)c(F)c1 (stereo not drawn) [Compound 115, N-(4-{4-[(2,2-Dichloro-3-methyl-cyclopropyl)-phenyl-methyl]-piperazin-1-yl}-3-fluoro-phenyl)-2-ethyl-butyramide]
78 nM		CCC(CC)C(=O)Nc1ccc(N2CCN(C(c3ccccc3)C3CC3)CC2)c(F)c1 (stereo not drawn) [Compound 53, N-{4-[4-(Cyclopropyl-phenyl-methyl)-piperazin-1-yl]-3-fluoro-phenyl}-2-ethyl-butyramide]
200 nM		CCC(CC)C(=O)Nc1ccc(N2CCN(C(c3ccccc3)C3CCCC3)CC2)c(F)c1 (stereo not drawn) [Compound 83, N-{4-[4-(Cyclopentyl-phenyl-methyl)-piperazin-1-yl]-3-fluoro-phenyl}-2-ethyl-butyramide]
250 nM		CCC(CC)C(=O)Nc1ccc(N2CCN(C(c3ccc(F)cc3)C3CCC3)CC2)c(F)c1 (stereo not drawn) [Compound 106, N-(4-{4-[Cyclobutyl-(4-fluoro-phenyl)-methyl]-piperazin-1-yl}-3-fluoro-phenyl)-2-ethyl-butyramide]
	63 nM	CCC(CC)C(=O)Nc1ccc(N2CCN(C(c3ccccc3)c3ccc(Cl)cc3)CC2)c(C#N)c1 (stereo not drawn) [Compound 311, N-(4-{4-[(4-Chloro-phenyl)-phenyl-methyl]-piperazin-1-yl}-3-cyano-phenyl)-2-ethyl-butyramide]
290 nM		CCC(CC)C(=O)Nc1ccc(N2CCN(C(c3ccc(OC)cc3)C3CC3)CC2)c(F)c1 (stereo not drawn) [Compound 84, N-(4-{4-[Cyclopropyl-(4-methoxy-phenyl)-methyl]-piperazin-1-yl}-3-fluoro-phenyl)-2-ethyl-butyramide]
330 nM		CCC(CC)C(=O)Nc1ccc(N2CCN(C(c3ccc(F)cc3)c3ccc(F)cc3)CC2)c(F)c1 [Compound 12, N-(4-{4-[Bis-(4-fluoro-phenyl)-methyl]-piperazin-1-yl}-3-fluoro-phenyl)-2-ethyl-butyramide]
